# From US20190233884A1 (University of Southern California, priority 2016, published 2019)
# System: patients with refractory metastatic colorectal cancer (mCRC)
# Test: PFS, OS and disease control in the training (evaluation) cohort of refractory mCRC patients receiving TAS-102 (n=52, Japan), by baseline characteristics, SNP genotype and toxicity
# Assay type: in vivo, human
# Settings: for OS (median) / PFS (median): evaluation cohort (JPN TAS-102); for Disease Control CR/PR/SD, patients n (%) / Median OS (95% CI) / Median PFS (95% CI) / PD, patients n (%) / HR OS (95% CI) / HR PFS (95% CI) / Disease Control Rate SD, patients n (%): evaluation cohort
# Protocol: All patients underwent the treatment in salvage-line setting. […]
# (§1) Genomic DNA was extracted from peripheral whole blood in patients of all cohorts using the QIAmp Kit (Qiagen, Valencia, Calif., USA) according to the manufacturer's protocol (www.qiagen.com). The candidate SNPs were genotyped using PCR-based direct DNA sequence analysis by ABI 3100A Capillary Genetic Analyzer and Sequencing Scanner v1.0 (Applied Biosystems). Amplification of extracted DNA was carried out using both forward and reverse primers for each gene polymorphism as shown in Table 1. […] The investigators analyzing SNPs were blinded to the clinical data of the study patients.
# The primary endpoint in this study was progression-free survival (PFS), and the secondary endpoints were overall survival (OS) and disease control rate (DCR). PFS was calculated from the date of starting treatment to the first observation of disease progression or death from any cause. If a patient had no disease progression or death, PFS was censored at the date of last follow up. OS was calculated from the date of starting treatment until the date of death from any cause or the date of the last follow-up, at which point OS was censored. The disease control rate (DCR) was defined as the proportion of patients who achieved a stable disease (SD) or […] according to RECISTv1.1. Chi-square test was used to examine the difference in baseline patient characteristics among the three cohorts. Allelic distribution of all SNPs by ethnicity for deviation from Hardy-Weinberg equilibrium and the allelic frequencies of SNPs were tested using the Chi-square tests with one degree of freedom. The associations between candidate SNPs and disease control, and toxicities were examined using contingency tables and Fisher's exact test. The associations of SNPs with PFS and OS were analysed using Kaplan-Meier curves and the log-rank test. Because the true mode of inheritance of candidate SNPs was not established yet, a codominant or dominant genetic model if appropriate was considered.
# All patients underwent the treatment in salvage-line setting. […] In all patients, adverse events were graded according to the Common Terminology Criteria for Adverse Events, version 4.0. […]
# as §1, with “tested” for “genotyped”, “Biosystems).” for “Biosystems). Amplification of extracted DNA was carried out using both forward and reverse primers for each gene polymorphism as shown in Table 1.”, “data.” for “data of the study patients.”
# The primary endpoint in this study was progression-free survival (PFS), and the secondary endpoints were overall survival (OS) and disease control rate (DCR).
# [1] = PCNA rs25406 G/A vs G/G, univariate
# [2] = Pin1 rs2233678 G/C vs G/G, multivariable
# [3] = Pin1 rs2233678 G/C vs G/G, univariate
# [4] = Pin1 rs2233679 Any T vs C/C, multivariable
# [5] = Pin1 rs2233679 Any T vs C/C, univariate
# [6] = Pin1 rs2233679 C/T vs C/C, multivariable
# [7] = Pin1 rs2233679 C/T vs C/C, univariate
# [8] = Pin1 rs2233679 T/T vs C/C, multivariable
# [9] = Pin1 rs2233679 T/T vs C/C, univariate
# [10] = RAD51 rs1801320 G/C vs G/G, multivariable
# [11] = RAD51 rs1801320 G/C vs G/G, univariate
# [12] = ATM rs609429 Any G vs C/C (Ref.), multivariable
# [13] = ATM rs609429 Any G vs C/C (Ref.), univariate
# [14] = ATM rs609429 G/C vs C/C (Ref.), multivariable
# [15] = ATM rs609429 G/C vs C/C (Ref.), univariate
# [16] = ATM rs609429 G/G vs C/C (Ref.), multivariable
# [17] = ATM rs609429 G/G vs C/C (Ref.), univariate
substance,measurement,setting,value
Trifluridine/tipiracil [TAS-102],OS HR (95% CI)†,[1],"0.62 (0.22, 1.71)"
same,PFS HR (95% CI) †,[1],"0.68 (0.32, 1.41)"
same,"OS median, months (95% CI)",PCNA rs25406 G/G,"8.3 (2.7, 14.8+) months"
same,"PFS median, months (95% CI)",PCNA rs25406 G/G,"2.1 (1.6, 4.2) months"
same,"OS median, months (95% CI)",Pin1 rs2233678 G/C,"4.2 (2.7, 5.7+) months"
same,"PFS median, months (95% CI)",Pin1 rs2233678 G/C,"1.7 (1.6, 1.8+) months"
same,OS HR (95% CI)‡,[2],"7.21 (1.47, 35.33)"
same,PFS HR (95% CI) ‡,[2],"5.08 (1.11, 23.23)"
same,OS HR (95% CI)†,[3],"4.23 (0.92, 19.42)"
same,PFS HR (95% CI) †,[3],"3.66 (0.79, 16.99)"
same,"OS median, months (95% CI)",Pin1 rs2233678 G/G,"8.3 (6.3, 15.6+) months"
same,"PFS median, months (95% CI)",Pin1 rs2233678 G/G,"2.9 (2.1, 3.4) months"
same,"OS median, months (95% CI)",Pin1 rs2233679 Any T,"8.3 (6.3, 14.8+) months"
same,"PFS median, months (95% CI)",Pin1 rs2233679 Any T,"3.3 (1.8, 3.7) months"
same,OS HR (95% CI)‡,[4],"1.05 (0.43, 2.54)"
same,PFS HR (95% CI) ‡,[4],"1.01 (0.53, 1.94)"
same,OS HR (95% CI)†,[5],"0.95 (0.40, 2.26)"
same,PFS HR (95% CI) †,[5],"0.84 (0.45, 1.57)"
same,"OS median, months (95% CI)",Pin1 rs2233679 C/C,"7.2 (4.9, 15.6+) months"
same,"PFS median, months (95% CI)",Pin1 rs2233679 C/C,"2.3 (1.8, 3.4) months"
same,"OS median, months (95% CI)",Pin1 rs2233679 C/T,"8.3 (6.3, 12.4+) months"
same,"PFS median, months (95% CI)",Pin1 rs2233679 C/T,"2.9 (1.8, 3.7) months"
same,OS HR (95% CI)‡,[6],"1.04 (0.41, 2.64)"
same,PFS HR (95% CI) ‡,[6],"1.03 (0.52, 2.03)"
same,OS HR (95% CI)†,[7],"1.05 (0.41, 2.65)"
same,PFS HR (95% CI) †,[7],"0.90 (0.46, 1.75)"
same,"OS median, months (95% CI)",Pin1 rs2233679 T/T,"8.1 (3.1, 14.8+) months"
same,"PFS median, months (95% CI)",Pin1 rs2233679 T/T,"3.4 (1.6, 4.6) months"
same,OS HR (95% CI)‡,[8],"1.08 (0.24, 4.91)"
same,PFS HR (95% CI) ‡,[8],"0.95 (0.34, 2.67)"
same,OS HR (95% CI)†,[9],"0.74 (0.20, 2.75)"
same,PFS HR (95% CI) †,[9],"0.70 (0.28, 1.79)"
same,"OS median, months (95% CI)",RAD51 rs1801320 G/C,"6.3 (1.4, 8.4+) months"
same,"PFS median, months (95% CI)",RAD51 rs1801320 G/C,"3.2 (0.9, 3.4) months"
same,OS HR (95% CI)‡,[10],"2.28 (0.81, 6.48)"
same,PFS HR (95% CI) ‡,[10],"1.34 (0.60, 3.00)"
same,OS HR (95% CI)†,[11],"2.19 (0.78, 6.14)"
same,PFS HR (95% CI) †,[11],"1.57 (0.70, 3.50)"
same,"OS median, months (95% CI)",RAD51 rs1801320 G/G,"8.3 (5.7, 15.6+) months"
same,"PFS median, months (95% CI)",RAD51 rs1801320 G/G,"2.5 (2.0, 4.1) months"
same,PFS,"TAS-102 cohort n=52, combined hENT1 and OCT2/MATE1 variants: poor (11)",47.0 days
same,PFS,combined hENT1 and OCT2/MATE1 analysis: overall (52),80 days
same,PFS,combined hENT1 and OCT2/MATE1 variants: excellent (21),104.0 days
same,PFS,combined hENT1 and OCT2/MATE1 variants: fair (16),62.0 days
same,PFS,combined hENT1 and OCT2/MATE1 variants: good (4),80 days
same,OS (median),ATM rs609429 C/C (n=14),4.4 months
same,OS (median),"ATM rs609429 any G allele (G/C or G/G, n=38)",8.7 months
same,PFS (median),XRCC3 rs861539 G/A (n=17),3.8 months
same,PFS (median),XRCC3 rs861539 G/G (n=35),2.3 months
same,"Disease Control CR/PR/SD, patients n (%)",ATM rs609429 Any G,10 (29%)
same,Median OS (95% CI),ATM rs609429 Any G,"8.7 (6.3, 15.6+) months"
same,Median PFS (95% CI),ATM rs609429 Any G,"2.7 (2.1, 3.4) months"
same,"PD, patients n (%)",ATM rs609429 Any G,25 (71%)
same,HR OS (95% CI),[12],"0.24 (0.07, 0.80)"
same,HR PFS (95% CI),[12],"1.37 (0.57, 3.26)"
same,HR OS (95% CI),[13],"0.37 (0.14, 0.99)"
same,HR PFS (95% CI),[13],"1.53 (0.70, 3.35)"
same,"Disease Control CR/PR/SD, patients n (%)",ATM rs609429 C/C,5 (45%)
same,Median OS (95% CI),ATM rs609429 C/C,"4.4 (3.1, 8.3+) months"
same,Median PFS (95% CI),ATM rs609429 C/C,"3.3 (1.6, 6.0+) months"
same,"PD, patients n (%)",ATM rs609429 C/C,6 (55%)
same,"Disease Control CR/PR/SD, patients n (%)",ATM rs609429 G/C,8 (32%)
same,Median OS (95% CI),ATM rs609429 G/C,"12.4 (6.3, 15.6+) months"
same,Median PFS (95% CI),ATM rs609429 G/C,"2.9 (1.8, 3.4) months"
same,"PD, patients n (%)",ATM rs609429 G/C,17 (68%)
same,HR OS (95% CI),[14],"0.19 (0.05, 0.68)"
same,HR PFS (95% CI),[14],"1.30 (0.53, 3.19)"
same,HR OS (95% CI),[15],"0.32 (0.11, 0.91)"
same,HR PFS (95% CI),[15],"1.53 (0.68, 3.43)"
same,"Disease Control CR/PR/SD, patients n (%)",ATM rs609429 G/G,2 (20%)
same,Median OS (95% CI),ATM rs609429 G/G,"8.7 (1.2, 14.8+) months"
same,Median PFS (95% CI),ATM rs609429 G/G,"2.6 (1.2, 4.1) months"
same,"PD, patients n (%)",ATM rs609429 G/G,8 (80%)
same,HR OS (95% CI),[16],"0.39 (0.10, 1.54)"
same,HR PFS (95% CI),[16],"1.56 (0.56, 4.37)"
same,HR OS (95% CI),[17],"0.52 (0.16, 1.73)"
same,HR PFS (95% CI),[17],"1.55 (0.59, 4.04)"
same,"Disease Control Rate SD, patients n (%)",ATR rs2227928 A/A,3 (20%)
same,"PD, patients n (%)",ATR rs2227928 A/A,12 (80%)
same,"Disease Control Rate SD, patients n (%)",ATR rs2227928 A/G,7 (32%)
same,"PD, patients n (%)",ATR rs2227928 A/G,15 (68%)
same,"Disease Control Rate SD, patients n (%)",ATR rs2227928 Any G,12 (39%)
same,"PD, patients n (%)",ATR rs2227928 Any G,19 (61%)
same,"Disease Control Rate SD, patients n (%)",ATR rs2227928 G/G,5 (56%)
same,"PD, patients n (%)",ATR rs2227928 G/G,4 (44%)
same,"Disease Control Rate SD, patients n (%)",BRCA1 rs16941 Any C,8 (30%)
same,"PD, patients n (%)",BRCA1 rs16941 Any C,19 (70%)
same,"Disease Control Rate SD, patients n (%)",BRCA1 rs16941 C/C,1 (20%)
same,"PD, patients n (%)",BRCA1 rs16941 C/C,4 (80%)
same,"Disease Control Rate SD, patients n (%)",BRCA1 rs16941 T/C,7 (32%)
